{"source": "patent US11911404B2", "about": "“Fucosylation and immune surveillance in melanoma” (H. LEE MOFFITT CANCER CENTER AND RESEARCH INSTITUTE, INC., priority 2017, dated 2024)", "key": {"RPS3": {"system": "RPS3", "test": "RPS3 fucosylation by lectin pull-down after cellular stressors", "type": "cell-based, human", "details": "melanoma cells treated 24-48 h, lectin PD (FIG. 12)", "description": "Specifically, (11A) RPS3 level in increased in melanoma cells relative to primary melanocytes (HEMN, human epidermal melanocytes). (11B) RPS3 is increased in melanoma through progression in human samples by TMA. TMA stained and analyzed by AQUA at Moffitt Cancer Center Department of Clinical Testing Development Core Facility. (11C) Nuclear RPS3 level increases with stage in matched primary and metastatic (MET) samples relative to HEMN cells (cell fractions analyzed by western blot [left]; cells analyzed by immunofluorescence [right]). (11D) Expression of RPS3-mDDK in vertical growth phase cells confers behavior associated with metastatic disease. Increased anchorage-independent growth [left], increased motility [right]. It was noted that Fucosylated RPS3 level increases in response to cellular stressors. Melanoma cells treated for 24-48 h with serum deprivation (SD), thapsigargin (T, thap) or mutant BRAF-inhibitor (Plexxikon, PLX) and assayed for RPS3 fucosylation by lectin PD (FIG. 12)."}, "melanoma tumors": {"system": "melanoma tumors", "test": "Immunofluorescent staining of tumors for immune cell infiltration (CD45, DX5)", "type": "in vivo, mouse", "details": "for infiltration of tumors by CD45+ immune cells (leukocytes) and NK cells: dietary fucose supplementation", "protocol": "(§1) To determine whether dietary or genetic modulation of fucosylation affects tumor growth and metastasis, we previously studied a mouse melanoma model in which tumor fucosylation was increased either by dietary supplementation (FIG. 2A) with 100 mM fucose or by overexpressing mouse FUK (FIG. 2B). […] To determine whether fucosylation affects tumor infiltration by immune cells, Immunofluorescent staining analysis of CD45 (general leukocyte marker, red) and DAPI (blue) was performed (FIG. 2C). To determine whether fucosylation affects tumor infiltration by NK cells, immunofluorescent staining analysis for DX5 (an NK cell marker, red) and DAPI (blue) was performed (FIG. 2D). Both NK cells and CD4+ T cells were elevated in samples from fucose supplemented mice."}, "mouse melanoma model": {"system": "mouse melanoma model", "test": "Mouse melanoma model, dietary fucose supplementation: tumor growth and metastasis", "type": "in vivo", "protocol": "as §1"}, "HLA-DRB1": {"system": "HLA-DRB1", "test": "Flow cytometry of cell surface presentation, normalized to PKH26", "type": "cell-based, human", "details": "WM793 cells, L-fucose treatment (FIG. 16B)", "protocol": "[…] Stained cells were subjected to flow cytometric analyses and quantitation of protein signal/PKH26 signal to quantitate protein per relatice surface area.\nFIGS. 16A and 16B show HLA-DRB1 is fucosylated on N48, and fucosylation promotes its cell surface presentation. […] AAL or HLA-DRB1 signals were normalized to PKH26 (total membrane stain).\nTo determine molecular mechanisms underlying the effects of fucosylation, a click-chemistry-based proteomic screen was performed to identify all fucosylated proteins in melanoma cells. 2 fucosylated immunomodulatory proteins, HLA-A and HLA-DRB1, were identified in melanoma cells. Fucose-binding lectin pulldown and immunoblot analysis confirmed the i) the expression and ii) the fucosylation of these 2 HLA proteins in melanoma cells, and further, indicate that their fucosylation is reduced when comparing patient-matched primary vs. metastatic cell lines (FIGS. 6A & 6C). The proximity ligation analysis technique, a cutting edge technique conventionally implemented to visualize 2 directly interacting proteins or post-translationally modified species of specific proteins when antibodies for the modifications are available (e.g., phosphorylated Tyr using an anti-phospho-Tyr antibody). […]"}, "1205Lu melanoma cells": {"system": "1205Lu melanoma cells", "test": "LDH-release cytotoxicity assay, NK cell co-culture with pre-treated melanoma cells", "type": "cell-based, human", "details": "1205Lu cells pre-treated with 250 μM, 8 h co-culture", "protocol": "After 8 h, LDH levels released in the media were measured. *=p 0.02; •=p<0.001. FIGS. 5C and 5D show Immunoblot analysis using AAL lectin (another fucose-binding lectin) was performed to confirm the effects of FUTi (C) or L-fucose (D) on 1205Lu cells (96 h treatment). (•: p-value≥0.02)(*: p-value≥0.002).\nThe possibility that tumor fucosylation can directly activate the tumor cell-killing activity of NK cells was explored. To assay for this possibility, a lactate dehydrogenase (LDH)-release-based assay was used in which the fucosylation of LU1205 melanoma cells was modulated prior to co-culture with NK cells. Specifically, primary NK cells isolates (5A) or immortalized NK92 cell line (5B) were co-cultured with 1205Lu melanoma cells that were pre-treated with DMSO, 250 μM pan-fucosyltransferase inhibitor (FUTi), or 250 μM L-fucose for 8 hours. Non-radioactive LDH-release cytotoxicity assay was performed to measure extent of NK cell-mediated killing. […] (•: p-value≥0.02) (*: p-value≥0.002)."}, "SW1 mouse melanoma [1]": {"system": "SW1 mouse melanoma", "test": "SW1 tumor growth in mice fed ±L-fucose and treated with anti-CTLA4 or anti-PD1", "type": "in vivo", "details": "SW1/C3H/HeJ model, oral 100 mM L-fucose from day 14; antibodies 20 mg/kg twice weekly", "protocol": "SW1 tumor growth curves in mice fed±100 mM L-fucose treated with either control (PBS) or […] (17A) or α-PD1 (17B). Combinations are color-coded as indicated. N=8 mice per condition. L-fucose was administered in the water starting on day 14 (refreshed twice weekly); α-CTLA4 or α-PD1 was administered (20 mg/kg each) twice weekly starting day 14. Compared with PBS control: #: p<0.001; *: p<0.05:\n(§2) Fucosylation of HLA-DRB1 occurs on amino acid N48 (mutation to G abolishes interaction with fucose-binding AAL lectin) (FIG. 16A). Increasing fucosylation (L-fucose treatment) promotes cell surface abundance of HLA-DRB1 (which is expected to increase CD4^+ T cell activation) (FIG. 16B). […] A lectin-mediated proximity ligation technique was developed to visualize fucosylated HLA-DRB1 in cells and tissues (FIG. 18)."}, "SW1 mouse melanoma [2]": {"system": "SW1 mouse melanoma", "test": "Growth of control, H2K1- or IEβ-knocked down SW1 tumors in mice fed ±100 mM L-fucose water", "type": "in vivo", "description": "N=7 mice/condition. •:p<0.01. […] (*initiate L-fucose).\nas §2"}, "SW1 mouse melanoma cells": {"system": "SW1 mouse melanoma cells", "test": "SW1 mouse melanoma tumor growth in C3H mice fed control or L-fucose water, with or without CD4+/CD8+ T cell depletion", "type": "in vivo", "protocol": "(§3) To determine which immune cell populations were affected by L-fucose, another mouse melanoma model treated with control or L-fucose-supplemented water was used. First, 1.25×10^6 SW1 mouse melanoma cells were injected into the back right flanks of the mice and allowed the tumors to grow to 150 mm^3. At 150 mm^3 (14 days), 100 mM L-fucose was administered via the drinking water to half of the mice. Tumor growth was monitored (FIGS. 3A and 3B). Total and specific subpopulations of tumor-infiltrating lymphocytes were assessed by cell flow cytometric analysis (FIGS. 3C and 3D). Assessed populations included F4/80 (macrophage)-, Gr-1 (MDSCs)-, Cd11c (Dendritic cells)-, and DX5 (NK cells)-positive cells. For T-cells, we probed for CD3 (general T-cell marker) and further for CD4 and CD8 (for those T cell subpopulations). Of the CD4-positive cells, CD25 positive cells was used to elucidate the T regulatory cells. […] Both CD4 and CD8 positive T cells (CD3+ cells) increased in response to fucose. However, myeloid derived suppressor cells (MDSCs) decreased in response to dietary fucose supplementation.\nThis SW1 melanoma tumor/C3H mouse isogenic model was recapitulated to profile—in detail—tumor-infiltrating immune populations. >65% reduced tumor growth was observed during dietary L-fucose supplementation (FIG. 4A). […]"}, "[3]": {"system": "SW1 mouse melanoma tumors", "test": "Flow cytometric analysis of tumor-infiltrating lymphocytes in SW1 tumors", "type": "in vivo", "details": "for tumor-infiltrating CD4+ and CD8+ T cells: dietary fucose vs control diet", "protocol": "as §3\nThis SW1 melanoma tumor/C3H mouse isogenic model was recapitulated to profile—in detail—tumor-infiltrating immune populations. >65% reduced tumor growth was observed during dietary L-fucose supplementation (FIG. 4A). […] Although most tumor-suppressive immune cell types were increased in the fucosylation-high, smaller tumors, tumor-infiltrating CD4+ and CD8+ T cells were most increased-doubled-in these tumors compared to control diet tumors (FIG. 4B, left and right). […] The presence and cytolytic activity of CD4+ T cells in tumors has been correlated with better patient survival rates and increased responsiveness to immunotherapies, respectively."}, "[4]": {"system": "SW1 mouse melanoma tumors", "test": "Flow cytometric analysis of tumor-infiltrating lymphocytes in SW1 tumors", "type": "in vivo", "details": "L-fucose treatment, CD4+ T cell-depleted mice (FIG. 4D)"}}, "note": "“Also recorded” adds a separate entry of the source.", "data": [{"smiles": "C/C=C(/C)C(=O)O[C@H]1C(C)=C2[C@H]([C@@H]1OC(=O)CCCCCCC)[C@@](C)(OC(C)=O)C[C@H](OC(=O)CCC)[C@@]1(O)[C@H]2OC(=O)[C@@]1(C)O", "note": "[thapsigargin]", "values": [{"measurement": "fucosylated RPS3 level", "setting": "RPS3", "value": "increases"}]}, {"smiles": "C[C@H](O)[C@@H](O)[C@@H](O)[C@H](O)C=O", "note": "[L-fucose]", "values": [{"measurement": "infiltration of tumors by CD45+ immune cells (leukocytes) and NK cells", "setting": "melanoma tumors", "value": "significant increases"}, {"measurement": "infiltration of tumors by CD45+ immune cells (leukocytes) and NK cells", "setting": "melanoma tumors; listed as fucose", "value": "increased"}, {"measurement": "NK cells and CD4+ T cells in tumor samples", "setting": "melanoma tumors; fucose supplemented mice, immunofluorescence (FIGS. 2C, 2D)", "value": "elevated"}, {"measurement": "reduction in tumor growth", "setting": "mouse melanoma model; L-fucose supplementation, earlier model", "value": "> 50", "unit": "%"}, {"measurement": "block of tumor growth and metastasis", "setting": "mouse melanoma model; dietary L-fucose supplementation, mouse models", "value": "> 50", "unit": "%"}, {"measurement": "tumor suppression", "setting": "mouse melanoma model; dietary supplementation with 100 mM fucose (FIG. 2A)", "value": "increased tumor suppression"}, {"measurement": "cell surface abundance of HLA-DRB1", "setting": "HLA-DRB1", "value": "promotes"}, {"measurement": "NK cell-mediated tumor-cell killing (LDH release), immortalized human NK cells", "setting": "1205Lu melanoma cells", "value": "sufficient to induce the tumor-cell killing activity"}, {"measurement": "NK cell-mediated tumor-cell killing (LDH release), primary human NK cells", "setting": "1205Lu melanoma cells", "value": "sufficient to induce the tumor-cell killing activity"}, {"measurement": "suppression of melanoma growth compared with checkpoint antibodies", "setting": "SW1 mouse melanoma [1]", "value": "more significantly than anti-CTLA4 or anti-PD1 alone; also recorded: more tumor suppressive than α-CTLA4 or α-PD1 alone"}, {"measurement": "difference in ±L-fuc tumor growth curves in H2K1 knocked-down tumors", "setting": "SW1 mouse melanoma [2]; shH2K1, ±100 mM L-fucose water", "value": "not significant"}, {"measurement": "L-fucose-triggered tumor suppression in IEβ (HLA-DRB1 ortholog) knocked-down tumors", "setting": "SW1 mouse melanoma [2]; shIEβ vs control shRNA (SCR), ±100 mM L-fucose water", "value": "abrogates; also recorded: not significant"}, {"measurement": "L-fucose-triggered tumor suppression after loss of CD4+ T cells", "setting": "SW1 mouse melanoma cells; CD4+ T cell-immunodepleted mice (FIG. 4C left)", "value": "abrogated tumor suppression"}, {"measurement": "reduced tumor growth", "setting": "SW1 mouse melanoma cells; SW1/C3H model, dietary 100 mM L-fucose in water, 45 days (FIG. 4A)", "value": "> 65", "unit": "%"}, {"measurement": "increase of NK cells, T cells (CD4+ and CD8+), dendritic cells and macrophage", "setting": "[3]; administration of fucose", "value": "10-50 fold"}, {"measurement": "overall immune infiltration of tumors", "setting": "[3]; dietary fucose supplementation, 100 mM in drinking water", "value": "increases"}, {"measurement": "myeloid derived suppressor cells (MDSCs) in tumors", "setting": "[3]; dietary fucose supplementation, listed as fucose", "value": "decrease"}, {"measurement": "tumor-infiltrating CD4+ and CD8+ T cells", "setting": "[3]", "value": "doubled"}, {"measurement": "tumor-infiltrating CD4+ and CD8+ T cells", "setting": "[3]; listed as fucose", "value": "increase"}, {"measurement": "infiltrating immune cells per gram of tumor vs control diet", "setting": "[3]; tumors from L-fucose-supplemented mice", "value": "10-50 fold"}, {"measurement": "numbers of intratumoral CD8+ T cells, CD11c+ dendritic cells and NK cells", "setting": "[4]", "value": "reduced numbers"}]}]}
